Read-outs that look alike come from different tables or passages of the source.
Tests used:
[1] = Accelerated storage test of aldehyde mixture with additive, 10 ppm Cu (Example 2); conditions: after 55° C. 14 days without cap; for C16:Acid: before test 1.05, blank 17.72; for Z9-16:Ald: before test 5.09, blank 3.05; for 16:Ald: before test 8.41, blank 6.60; for Z11-16Ald: before test 75.31, blank 54.31
Description: The term “accelerated storage test” as used herein refers to a well known protocol for investigating the stability of a particular composition. The protocol is described in for example the memorandum dated 16 Nov. 2012 from The United States Environmental Protection Agency Washington, D.C. 20460 with the subject title “Accelerated Storage Stability and Corrosion Characteristics Study Protocol”. The protocol evaluates product stability at 54° C.±2° C. for 14 days.

[2] = Accelerated storage test of aldehyde mixture with additive, 40 ppm Cu (Example 1); type: physicochemical; conditions: after 55° C. 14 days without cap; for Z9-16:Ald: before test 4.3, blank 3.066023; for C16:Acid: before test 6.7, blank 18.84135; for 16:Ald: before test 7.5, blank 6.659339; for Z11-16Ald: before test 69.4, blank 54.83784, in % (unit assumed)
Description: To a mixture of aldehydes containing; (Z)-9-hexadecenal, (Z)-11-hexadecenal, hexadecanal, (Z)-11-hexadecen-1-ol, (Z)-11-hexadecenoic acid and 40 ppm Cu was added an additive as indicated in table 1 below. The mixture was thoroughly mixed and heated without cap in an oven at 55° C. for 14 days as an accelerated storage test.

[3] = Storage test of aldehyde mixture containing 4-hydroxy-TEMPO with additive (Example 4); type: physicochemical; conditions: for Heptane / Z11-16:OH / 16:Acid / OH tempo / Z9-16:Ald / 15-1:Ald / 16:Ald / Z11-16:Ald: after 55° C. 14 days without cap; for Heptane: before test 0.04, without additive 0.04; for Z11-16:OH: before test 0.27, without additive 0.06; for 16:Acid: before test 1.05, without additive 6.14; for OH tempo: before test 1.19, without additive 1.11; for Z9-16:Ald: before test 5.09, without additive 3.71; for 15-1:Ald: before test 7.27, without additive 5.83; for 16:Ald: before test 8.41, without additive 6.64; for Z11-16:Ald: before test 75.31, without additive 57.21, in % (unit assumed)
Description: To a mixture of aldehydes containing; 4-hydroxy-TEMPO (4-hydroxy-2,2,6,6-tetramethylpiperidin-1-oxyl), (Z)-10-pentenenal, (Z)-9-hexadecenal, (Z)-11-hexadecenal, hexadecanal, (Z)-11-hexadecen-1-ol and (Z)-11-hexadecenoic acid in the composition listed in table 4 below was added up to 1% of an additive in table below. The mixture was thoroughly mixed and heated without cap in an oven at 55° C. for 14 days.

[4] = Storage test of aldehyde mixture containing 4-hydroxy-TEMPO and 10 ppm Copper with additive (Example 3); conditions: 10 ppm Copper; for Z11-16:OH / Z10-15:Ald / 16:Acid / Z9-16:Ald / 16:Ald / Z11-16:Ald: after 55 C 14 days without cap; for Z11-16:OH: before test 2.16, blank 1.44; for Z10-15:Ald: before test 2.61, blank 2.72; for 16:Acid: before test 3.01, blank 7.94; for Z9-16:Ald: before test 5.33, blank 3.91; for 16:Ald: before test 8.16, blank 6.48; for Z11-16:Ald: before test 74.98, blank 58.18
Description: To a mixture of aldehydes containing; 4-hydroxy-TEMPO (4-hydroxy-2,2,6,6-tetramethylpiperidin-1-oxyl), (Z)-10-pentenenal, (Z)-9-hexadecenal, (Z)-11-hexadecenal, hexadecanal, (Z)-11-hexadecen-1-ol (Z)-11-hexadecenoic acid and 10 ppm Copper in the composition listed in table 3 below was added up to 1% of an additive in table below. The mixture was thoroughly mixed and heated without cap in an oven at 55 C for 14 days.

Compound | C16:Acid [1] | Z9-16:Ald [1] | 16:Ald [1] | Z11-16Ald [1] | Z9-16:Ald [2] | C16:Acid [2] | 16:Ald [2] | Z11-16Ald [2] | also measured
CC1(C)CC(OC(=O)CCCCCCCCC(=O)OC2CC(C)(C)NC(C)(C)C2)CC(C)(C)N1 [Tinuvin 770] | 16.99 | 3.12 | 6.62 | 54.84 | 3.135 | 18.22 | 6.749 | 55.81 | 
C1COCCN1 [Morpholine] | 12.54 | 3.23 | 6.84 | 57.13 | 2.255 | 12.35 | 4.755 | 40.03 | 
CCCOC(=O)c1cc(O)c(O)c(O)c1 [Propyl Gallate] | 11.32 | 3.83 | 3.81 | 67.75 | 3.464 | 14.55 | 7.376 | 61.55 | 
CN(C)CCO [Dimethylethanolamine] | 17.70 | 3.09 | 6.65 | 54.82 | 0 | 11.55 | 1.242 | 8.128 | 
Zinc Pyrithione |  |  |  |  |  |  |  |  | suppressing acid formation and/or degradation of the aldehydes ([3]; 55° C. 14 days): particularly efficient at suppressing acid formation and/or degradation of the aldehydes; Heptane [3]: 0.04; Z11-16:OH [3]: 0.13; 16:Acid [3]: 2.29; OH tempo [3]: 1.17; Z9-16:Ald [3]: 4.57; 15-1:Ald [3]: 6.78; 16:Ald [3]: 7.72; Z11-16:Ald [3]: 65.87; suppressing acid formation and degradation of the aldehydes ([4]; 55 C 14 days): particularly efficient at suppressing acid formation and degradation of the aldehydes; Z11-16:OH [4]: 1.53; Z10-15:Ald [4]: 3.04; 16:Acid [4]: 5.28; Z9-16:Ald [4]: 4.44; 16:Ald [4]: 7.01; Z11-16:Ald [4]: 64.80
Cn1ccnc1S [2-mercapto-1-methylimidazole] |  |  |  |  |  |  |  |  | suppressing acid formation and/or degradation of the aldehydes [3]: particularly efficient at suppressing acid formation and/or degradation of the aldehydes; Heptane [3]: 0.04; Z11-16:OH [3]: 0.28; 16:Acid [3]: 1.12; OH tempo [3]: 1.12; Z9-16:Ald [3]: 4.88; 15-1:Ald [3]: 6.65; 16:Ald [3]: 8.22; Z11-16:Ald [3]: 73.41; Z11-16:OH [4]: 1.92; Z10-15:Ald [4]: 2.88; 16:Acid [4]: 2.93; Z9-16:Ald [4]: 4.83; 16:Ald [4]: 7.82; Z11-16:Ald [4]: 72.34
CC1(C)CC(O)CC(C)(C)N1[O] [Additive 4-OH-TEMPO, 4-hydroxy-2,2,6,6-tetramethylpiperidin-1-oxyl] |  |  |  |  |  |  |  |  | Heptane [3]: 0.04; Z11-16:OH [3]: 0.19; 16:Acid [3]: 3.00; OH tempo [3]: 1.53; Z9-16:Ald [3]: 4.52; 15-1:Ald [3]: 6.54; 16:Ald [3]: 7.60; Z11-16:Ald [3]: 67.41; Z11-16:OH [4]: 1.88; Z10-15:Ald [4]: 2.69; 16:Acid [4]: 4.18; Z9-16:Ald [4]: 4.72; 16:Ald [4]: 7.51; Z11-16:Ald [4]: 68.82
CC1(C)CC(=O)CC(C)(C)N1 [2,2,6,6-tetramethyl-4-piperidone] |  |  |  |  |  |  |  |  | Heptane [3]: 0.04; Z11-16:OH [3]: 0.15; 16:Acid [3]: 4.02; OH tempo [3]: 1.11; Z9-16:Ald [3]: 4.03; 15-1:Ald [3]: 6.27; 16:Ald [3]: 6.95; Z11-16:Ald [3]: 61.06; Z11-16:OH [4]: 1.75; Z10-15:Ald [4]: 3.14; 16:Acid [4]: 5.70; Z9-16:Ald [4]: 3.83; 16:Ald [4]: 6.41; Z11-16:Ald [4]: 59.27
COc1ccc(O)c(C(C)(C)C)c1 [BHA] | 12.64 | 3.46 | 7.33 | 61.54 | 3.364 | 15.55 | 7.158 | 59.48 | 
Cc1c(C)c2c(c(C)c1O)CCC(C)(CCCC(C)CCCC(C)CCCC(C)C)O2 (racemic) [Tocopherol] | 17.70 | 3.09 | 6.65 | 54.82 | 3.379 | 17.008 | 6.914 | 54.67 | 
Cc1ccc(O)c(-n2nc3ccccc3n2)c1 [Tinuvin P] | 17.66 | 3.07 | 6.57 | 54.01 | 3.085 | 19.1541 | 6.634 | 54.35 | 
Cc1cc(-n2nc3ccc(Cl)cc3n2)c(O)c(C(C)(C)C)c1 [Sumisorb] | 15.21 | 3.20 | 6.81 | 56.62 | 3.325 | 17.1 | 6.835 | 52.4909 | 
Nc1nnc(S)s1 [5-Amino-1,3,4-Thiadiazole-2-thiol] |  |  |  |  |  |  |  |  | suppressing acid formation and/or degradation of the aldehydes [3]: particularly efficient at suppressing acid formation and/or degradation of the aldehydes; Heptane [3]: 0.04; Z11-16:OH [3]: 0.12; 16:Acid [3]: 1.87; OH tempo [3]: 1.12; Z9-16:Ald [3]: 4.46; 15-1:Ald [3]: 6.82; 16:Ald [3]: 7.78; Z11-16:Ald [3]: 69.41; Z11-16:OH [4]: 2.11; Z10-15:Ald [4]: 2.95; 16:Acid [4]: 3.03; Z9-16:Ald [4]: 4.92; 16:Ald [4]: 7.81; Z11-16:Ald [4]: 72.73
O=S1(=O)CCCC1 [Sulfolane] | 16.92 | 3.08 | 6.60 | 54.29 | 3.077 | 18.34 | 6.666 | 54.91 | 
[Na+].[OH-] [Sodium Hydroxide] | 12.93 | 3.18 | 6.65 | 55.97 | 2.927 | 16.74 | 6.224 | 51.62 | 
Cc1cc(C(C)(C)C)c(O)c(C(C)(C)C)c1 [BHT] | 10.43 | 3.73 | 7.73 | 65.80 | 3.425 | 16.05 | 6.958 | 54.06 | 
CC(C)(C)c1cc(O)ccc1O [TBHQ] | 10.34 | 3.67 | 7.75 | 65.65 | 3.367 | 16.52 | 6.913 | 53.69 | 
OCC(O)CO [Glycerol] | 16.74 | 0.00 | 6.75 | 55.52 | 3.115 | 18.83 | 6.736 | 54.86 | 
C[S+](C)[O-] [DMSO] | 16.74 | 3.10 | 6.68 | 55.41 | 3.061 | 19.17 | 6.722 | 55.24 | 
